Measured values published in patent US20240246951A1, “COMPOUND HAVING BIOLOGICAL ACTIVITY SUCH AS ANTIVIRAL ACTIVITY” (NATIONAL CENTER FOR GLOBAL HEALTH AND MEDICINE, priority 2021, published 2024).

Test system: SARS-CoV-2 variants (TX7-501, TY8-612, QHN001, K1734, K5356)
Type: cell-based
Details: variants of Table 4 instead of WK-521; data not shown

**Q.** Which “antiviral activity against variants” value does the source give for `CC(C)(C)[C@H](NC(=O)C(F)(F)F)C(=O)N1C[C@H]2[C@@H]([C@H]1C(=O)N[C@@H](C[C@@H]1CCNC1=O)C(=O)c1nc3c(F)cccc3s1)C2(C)C` [Compound 245, (1R,2S,5S)-3-((S)-3,3-dimethyl-2-(2,2,2-trifluoroacetamido)butanoyl)-N-((S)-1-(4-fluorobenzo[d]thiazol-2-yl)-1-oxo-3-((S)-2-oxopyrrolidin-3-yl)propan-2-yl)-6,6-dimethyl-3-azabicyclo[3.1.0]hexane-2-carboxamide] here?
**A.** excellent antiviral activities
